Measured values: patent US20240293336A1, “PERCUTANEOUS ABSORPTION FORMULATION FOR TREATING SLEEP DISORDERS” (SINSIN PHARM CO., LTD., priority 2016, published 2024)

Experiments:
[1] = Observation of crystal formation in the patch; type: physicochemical
Protocol: (§1) 10 wt % melatonin was placed in a 70 mL vial and dissolved in methanol, and then 90 wt % adhesive was added thereto, followed by mixing in a roll mixer for 2 hours. Next, the mixture was allowed to stand for 30 minutes to remove bubbles, after which a silicone-treated polyethylene terephthalate release film was placed on a coating machine, and the mixed adhesive was dried, and then coated onto the release film to 70 μm. Thereafter, the resultant was dried in an oven at 80° C. for 3 minutes, and then a supporting layer film was laminated thereon and compressed using a roller press. The resultant was cut of a patch cutter, thereby manufacturing a patch having an area of 10 cm^2. Next, the physical properties of the patch and crystal formation were observed, and a percutaneous absorption test was performed.
as §1, with “Melatonin and a solubilizing agent were placed” for “10 wt % melatonin was placed”, “then an” for “then 90 wt %”, “coated on” for “coated onto”, “a support” for “a supporting”, “cut by using” for “cut of”, “were observed.” for “were observed, and a percutaneous absorption test was performed.”
A crystallization inhibitor was placed and dissolved in a 70 mL vial, and then a solubilizing agent, an antioxidant and melatonin were added and dissolved, after which an adhesive was added thereto, followed by mixing in a roll mixer for 2 hours. Next, the mixture was allowed to stand for 30 minutes to remove bubbles, after which a silicone-treated polyethylene terephthalate release film was placed on a coating machine, and the mixed adhesive was dried, and then coated on the release film to 70 μm. Thereafter, the resultant was dried in an oven at 80° C. for 3 minutes, and then a support layer film was laminated thereon and compressed using a roller press. The resultant was cut by using a patch cutter, thereby manufacturing a patch having an area of 10 cm^2. Next, the physical properties of the patch and crystal formation were observed.
A crystallization inhibitor was placed and dissolved in a 70 mL vial, and then a solubilizing agent, an antioxidant, a percutaneous absorption enhancer and melatonin were added thereto and dissolved, after which an adhesive was added thereto, followed by mixing in a roll mixer for 2 hours. […]

[2] = melatonin administered orally; cited from earlier work

| Crystal formation (after 1 month) (microscopic observation) [1] | crystal formation in visual observation [1] | Compound | bioavailability [2] [%] | half-life [2] |
| --- | --- | --- | --- | --- |
| fine crystal formation | no crystal formation | CN1CCCC1=O [N-methyl pyrrolidone] | – | – |
| fine crystal formation | no crystal formation | CCOCCOCCO [Transcutol CG, ethoxydiglycol] | – | – |
| – | – | COc1ccc2[nH]cc(CCNC(C)=O)c2c1 [melatonin] | 20 | about 1 hour |
